Columns and labels:
[1] = Liposome import assay (RZ-3 fluorescence); format: physicochemical; details: for change of RZ-3 fluorescence with reversed [Zn2+]free gradient: large excess of EDTA outside the liposomes, ZMC1 added subsequently; for shuttling of Zn2+ into liposomes: external [Zn2+]free 10 μM
Procedure: DOPC-liposomes were prepared by film rehydration and extrusion followed by gel filtration and diluted to an OD600=0.06 in buffer. The size distribution of the liposomes was determined by dynamic light scattering (DLS) using a Malvern Zetasizer Nano ZS. Fluorescence measurements were taken on a Horiba Fluoromax-4 spectrofluorimeter in a 5×5 mm quartz cuvette with λex/λcm=550/572 nm for RZ-3 and 490/515 nm for calcein. Initial Zn^2+ import/export was quantified by fitting the first 10-30 s of data after each treatment to a line and converted to units of flux using the following Eqn 1:
[formula] where Ji is the initial flux, ΔF/Δt is the slope of the fit line, Fmax is RZ-3 fluorescence in the presence of saturating Zn^2+ and 1% TritonX-100, Fmin is RZ-3 fluorescence in the presence of excess EDTA and 1% TritonX-100, [RZ3] is the concentration of encapsulated RZ-3, and SA/Vol is the surface area to volume ratio calculated assuming hollow spheres of the mean diameter determined by DLS. Intracellular [Zn^2+]free Imaging TOV112D or HEK293 cells (40,000 cells/well) were plated on either 8-well BD Falcon chambered culture slides (Corning Life Sciences) or 8-chambered #1.5 Nunc Lab-Tek II chambered coverglasses (Thermo Scientific) treated with poly-L-lysine. After 48 h, cells were washed 2×5 m in serum-free media and incubated with 1 μM FZ3-AM for 40 m at 37° C. Cells were then washed 2×5 m in either EBSS/H (−)Ca/Mg or phenol-red free DMEM+10% FBS containing the indicated treatments for 20 m before imaging. For nuclear colocalization, 1 μg/mL Hoechst 33342 was also included. Cells were imaged using a Zeiss LSM510 META NLO confocal microscope equipped with 37° C. environmental control chamber. FZ3 and Hoechst 33342 were excited at 488 nm (argon laser) and 790 nm (Chameleon Ti:sapphire laser), respectively. To determine the kinetics of fluorescence change, each background-subtracted image in the time-lapse series was integrated in ImageJ and normalized to the integrated fluorescence of the first frame after treatment. For quantification of intracellular [Zn^2+]free, each cell was analyzed in the treated, 50 μM PYR/ZnCl2 (1:1), and 100 μM TPEN images by taking the mean fluorescence of an ROI inside the cell subtracted by an ROI immediately outside the cell measured in ImageJ. The [Zn^2+]free for each cell was then calculated by Eqn 2: […]

H460 (p53-WT) = test: Cell growth inhibition assay, H460; format: cell-based, human; details: three day assay, H460, FIG. 1
H1299 (p53-null) = test: Cell growth inhibition assay, H1299; format: cell-based, human; details: three day assay, H1299, FIG. 1
[2] = tested on: HEK293 (non-cancer, p53-WT) cells; test: Intracellular [Zn2+]free imaging with FluoZin-3-AM, HEK293; format: cell-based; details: for increase of intracellular [Zn2+]free (FZ3-AM fluorescence): HEK293, complete media, confocal microscopy
Procedure: To minimize the potential for Zn^2+ contamination and contributions from poorly defined elements in complete media (e.g. FBS), cells were treated and imaged in Ca^2+ and Mg^2+-free Earle's Balanced Salt Solution supplemented with 10 mM HEPES pH 7.4 (EBSS/H (−)Ca/Mg). Excess ZnCl2 with the Zn^2+ ionophore pyrithione (PYR) was used as a positive control. Excess membrane-permeable Zn^2+ chelator N,N,N′,N′-tetrakis(2-pyridylmethyl)ethane-1,2-diamine (TPEN) was used as a negative control.
To normalize for differential dye loading, cells were then sequentially treated with excess PYR/ZnCl2, imaged, treated with TPEN, and imaged again. PYR/ZnCl2 and TPEN served to saturate and apoize the intracellular FZ3, respectively.
[formula] where Ji is the initial flux, ΔF/Δt is the slope of the fit line, Fmax is RZ-3 fluorescence in the presence of saturating Zn^2+ and 1% TritonX-100, Fmin is RZ-3 fluorescence in the presence of excess EDTA and 1% TritonX-100, [RZ3] is the concentration of encapsulated RZ-3, and SA/Vol is the surface area to volume ratio calculated assuming hollow spheres of the mean diameter determined by DLS. Intracellular [Zn^2+]free Imaging TOV112D or HEK293 cells (40,000 cells/well) were plated on either 8-well BD Falcon chambered culture slides (Corning Life Sciences) or 8-chambered #1.5 Nunc Lab-Tek II chambered coverglasses (Thermo Scientific) treated with poly-L-lysine. After 48 h, cells were washed 2×5 m in serum-free media and incubated with 1 μM FZ3-AM for 40 m at 37° C. Cells were then washed 2×5 m in either EBSS/H (−)Ca/Mg or phenol-red free DMEM+10% FBS containing the indicated treatments for 20 m before imaging. For nuclear colocalization, 1 μg/mL Hoechst 33342 was also included. Cells were imaged using a Zeiss LSM510 META NLO confocal microscope equipped with 37° C. environmental control chamber. FZ3 and Hoechst 33342 were excited at 488 nm (argon laser) and 790 nm (Chameleon Ti:sapphire laser), respectively. To determine the kinetics of fluorescence change, each background-subtracted image in the time-lapse series was integrated in ImageJ and normalized to the integrated fluorescence of the first frame after treatment. For quantification of intracellular [Zn^2+]free, each cell was analyzed in the treated, 50 μM PYR/ZnCl2 (1:1), and 100 μM TPEN images by taking the mean fluorescence of an ROI inside the cell subtracted by an ROI immediately outside the cell measured in ImageJ. The [Zn^2+]free for each cell was then calculated by Eqn 2:
[formula] […] To minimize the effects of outliers the lowest and highest 5% of cells in each series were rejected, and the remaining values averaged to give the value from that experiment. The number of cells analyzed in each trial ranged from 54-163. For nuclear colocalization, treated, PYR/ZnCl2, and TPEN treated images costained with Hoechst 33342 were aligned and each pixel subjected to Eqn. 2 in MATLAB (MathWorks).

| SMILES | ability to cross liposomal (or cellular) membranes [1] | change of RZ-3 fluorescence with reversed [Zn2+]free gradient [1] | cell growth inhibition of p53 wildtype cell line (H460 (p53-WT)) | cell growth inhibition of p53 null cell line (H1299 (p53-null)) | increase of intracellular [Zn2+]free (FZ3-AM fluorescence) [2] | shuttling of Zn2+ into liposomes [1] | also measured |
| --- | --- | --- | --- | --- | --- | --- | --- |
| O=C(O)CN(CCN(CC(=O)O)CC(=O)O)CC(=O)O [EDTA] | impermeable | did not cause a significant decrease | – | – | – | – | – |
| C/C(=N\Nc1nc2ccccc2s1)c1ccccn1 [Example 1, (E)-2-(2-(1-(pyridin-2-yl)ethylidene)hydrazinyl)benzo[d]thiazole] | – | – | undisturbed | undisturbed | – | – | – |
| C/C(=N\Nc1nc2ccccc2o1)c1ccccn1 [Example 2, (E)-2-(2-(1-(pyridin-2-yl)ethylidene)hydrazinyl)benzo[d]oxazole] | – | – | undisturbed | undisturbed | – | – | – |
| C/C(=N\NC(=O)N1CCC1)c1ccccn1 [Example A6] | – | – | – | – | did not | shuttled Zn^2+ into the liposomes | – |
| O=C(O)CN(CC(=O)O)CC(=O)O [NTA] | cannot cross | – | – | – | did not | did not | – |
| C/C(=N\NC(=S)N1CCC1)c1ccccn1 [ZMC1] | crossed the liposomal membranes | time dependent decrease | – | – | increased | – | steady-state intracellular [Zn2+]free ([2]; HEK293, 1 μM ZMC1 and 0.5 μM ZnCl2 in EBSS/H (−)Ca/Mg): 18.1 ± 4.7 nM; increase of intracellular [Zn2+]free, compound alone ([2]; HEK293, EBSS/H (−)Ca/Mg, ZMC1 alone without ZnCl2): neither cell type showed an increase; increase of intracellular [Zn2+]free, with ZnCl2 ([2]; HEK293, EBSS/H (−)Ca/Mg, ZMC1 and ZnCl2, two ZnCl2 concentrations): time dependent increase |

From patent publication US10828288B2, “Hydrazone derivatives for the treatment of cancer” (RUTGERS, THE STATE UNIVERSITY OF NEW JERSEY, priority 2015, dated 2020)
